How the values were obtained:
B. megaterium SR7 [1] = assay: M9 supplemented growth under 1 atm CO2 (OD600); format: cell-based, Bacillus megaterium; details: amendment to M9 base medium, 1 atm CO2, scored by OD600
Text: Development of a minimal medium enables individual chemical components to be tuned in order to establish optimized growth from a sole carbon source under 1 atm CO2. Initial attempts to generate B. megaterium SR7 growth in triplicate cultures tested various amendments to M9 base medium (thelabrat.com; Table 1), including 0.4% glucose or 0.4% xylose amendments as sole carbon sources, with or without trace metals solution (Boone et al., 1989). The 1× concentration trace metals solution consisted of (in g/l): 0.005 Na2(EDTA), 0.0002 NiSO4.6H2O, 0.0005 CoCl2.6H2O, 0.0001H2FeO3, 0.001 FeSO4.7H2O, 0.0001H3BO3, 0.001 ZnCl2, 0.0001 NaMoO4.2H2O, 0.0004 AlCl3.6H2O, 0.001 MnCl2.4H2O, 0.0003 Na2NO4.2H2O, 0.0002 CaCl2. To further boost growth, triplicate cultures of M9+0.4% glucose were amended with dilute LB (0.001-0.01×) or yeast extract (YE; 0.001-0.01×) as de facto vitamin and co-factor solutions, and/or NaNO3 (5 mM) as an alternative electron acceptor. All M9 incubations were scored for growth by OD600 and designated as robust above OD600>0.600, low level between 0.2-0.6, and no growth below 0.2. Passaged vegetative cultures were also assayed in duplicate for growth (by OD600) amended with a range (0.1×, 0.25×, 1×) of trace metals solutions in M9+0.4% glucose+0.01×YE media, including in the presence and absence of 5 mM NaNO3.

B. megaterium SR7 spores [2] = assay: Flow cytometry germination assay (Syto16/PI); format: cell-based, Bacillus megaterium; details: PBS amended with 2.5, 25, 250 mM
Experimental: FCM was employed as a high-throughput germination assay based on Baier et al., (2010). Triplicate cultures of B. megaterium SR7 spores loaded at OD600 0.01 were incubated overnight in PBS and PBS amended with 2.5-250 mM L-alanine, along with cell-free PBS controls. Prior to loading on the flow cytometer (BD FACS Canto II HTS-1; Becton Dickinson; Franklin Lakes, N.J.) cultures were diluted 1/50 in PBS and stained with Syto16® and propidium iodide (PI) in the dark for at least 30 minutes prior to analysis. After spore and media-only samples were used to set forward scatter, side-scatter, Syto16 and PI gates, sample data was collected and analyzed using […]™ software (BD Biosciences; Franklin Lakes, N.Y.).

B. megaterium SR7 spores [3] = assay: Spore germination induction in PBS under 1 atm CO2 (fluorescence microscopy, bulk fluorescence); format: cell-based, Bacillus megaterium; details: 100 mM, 8.5 hour endpoint (maximum)
Experimental: The role of candidate germination inducers was subsequently investigated in PBS buffer rather than growth medium to decouple the germination process from outgrowth. B. megaterium SR7 spores were loaded in triplicate 10 ml PBS amended with 100-250 mM L-alanine, 100 mM L-alanine with heat treatment, 25 mM L-leucine, or an unamended PBS control. The extent of germination was measured by fluorescence microscopy staining patterns (e.g., the degree of cell membrane penetration by DNA stain), bulk fluorescence, OD600, and flow cytometry (FCM). A total of 100-300 cells per filter were counted and categorized as either “dormant” or “germinated” if the spore stain was localized to the cell membrane or diffused within the interior of the cell, respectively (Cronin and Wilkinson, 2007). Cells displaying an intermediate degree of stain dispersal (“activated”) were categorized as germinated (FIG. 1).
Sub-sample bulk fluorescence (Syto9®) was measured by microplate reader (BioTek Synergy 2; 485/20 excitation, 528/20 emission) and OD600 was measured by microplate reader. OD should decrease in germinated cells (the index of refraction decreases due to hydration upon spore coat degradation) while bulk fluorescence should increase as the nucleic acid stain progressively penetrates and permeates the cell (Magge et al., 2009). […]

B. megaterium SR7 [4] = assay: Biolog GenIII sole carbon source growth; format: cell-based, Bacillus megaterium; details: for Growth in carbon source Biolog plate, +Metals: trace metals-amended plate; for Growth in carbon source Biolog plate, +Metals / Growth in carbon source Biolog plate, I / Growth in carbon source Biolog plate, II: Table 11; for Growth in carbon source Biolog plate, I: unamended plate trial I; for Growth in carbon source Biolog plate, II: unamended plate trial II
Experimental: (§1) Plates were incubated at 37° C. on a plate shaker at 200 rpm and assayed for growth using NADH-dependent colorimetric changes measured by OD490 on a microplate reader (BioTek Synergy 2; BioTek; Winooski, Vt.).

B. megaterium SR7 spores [5] = assay: Delayed germination induction in PBS under 1 atm CO2 (bulk fluorescence, OD600); format: cell-based, Bacillus megaterium; details: 9.5 hours after delayed induction in PBS; for OD600 Fold Decrease: OD decrease indicative of germination
Experimental: Sub-sample bulk fluorescence (Syto9®) was measured by microplate reader (BioTek Synergy 2; 485/20 excitation, 528/20 emission) and OD600 was measured by microplate reader. OD should decrease in germinated cells (the index of refraction decreases due to hydration upon spore coat degradation) while bulk fluorescence should increase as the nucleic acid stain progressively penetrates and permeates the cell (Magge et al., 2009). To test for germination after a delayed inducer spike rather than at the moment of inoculation, B. megaterium SR7 spores loaded at OD600 0.01 were incubated overnight in 30 ml of PBS, passaged into PBS amended with L-alanine (25-250 mM) or L-leucine (10-25 mM) and then assayed for germination by bulk fluorescence and OD600 during incubation.

B. megaterium SR7 spores [6] = assay: Spore germination in LB under 1 atm CO2; format: cell-based, Bacillus megaterium; details: 100 mM L-alanine-amended LB, unamended cultures grew between 4.5 and 6 hours
Experimental: The ability to induce spore germination based on literature precedent was tested by inoculating triplicate 10 ml cultures of SR7 spores at OD600 0.01 in LB amended with 100 mM L-alanine, LB subjected to a heat activation (65° C. for 15 minutes) upon inoculation, or unamended LB as a control. Growth was scored by OD600 and LB agar CFU plate counts. In addition, subsamples were heat-killed by exposure to 80° C. for 10 minutes (Setlow, 2006) prior to plating, to ascertain remaining spore concentrations, as heat exposure is lethal to vegetative cells.

B. megaterium SR7 spores [7] = assay: Spore germination and growth under scCO2 with germination inducers; format: cell-based, Bacillus megaterium
Experimental: SR7 growth outcomes were investigated under scCO2 headspace (90-100 atm; 37° C.) while shaking at 250 rpm. SR7 spores were inoculated at starting concentrations of ˜3×10^4 spores/ml (unless otherwise specified) in either 50 mM K2HPO4-buffered LB (P-LB) or M9+ media (Table 1). Experiments assaying the effect of germination induction included 100 mM L-alanine and 10 mM L-leucine media amendments and heat treatment upon reactor pressurization (70° C. for 10 minutes). Incubations were conducted in 316 stainless steel vessels and gradually pressurized to supercritical conditions using a CO2/He cylinder, as previously described. SR7 germination was verified by the identification of vegetative cell morphologies using fluorescence microscopy of Syto9-stained cultures. Growth was defined by an increase of at least 10-fold growth in cell counts relative to t0.
In order to ascertain whether L-alanine, L-leucine, and heat treatment induce germination under scCO2 headspace, three replicate experiments were conducted comparing growth for SR7 spores when loaded in media P-LB, P-LBL, P-LBAL, or P-LBA±heat treatment (Table 1; Table 2). Reactors were depressurized and scored for germination and growth by fluorescence microscopy, as previously described.
Cell densities of P-LB and L-PBA incubations from the three experiments (Table 3; Incubations A-C) were subjected to statistical analysis to establish the significance of 100 mM L-alanine on spore growth outcomes. A non-parametric Wilcoxon/Kruskal-Wallis Test was performed on the dataset (JMP® Pro v.12; SAS Cary, N.C.) where growth outcome (growth/no growth) and cell density fold change (relative to t0) were dependent variables and incubation time and inducer presence/absence (±100 mM L-alanine) were independent variables. […]

B. megaterium SR7 [8] = details: LB, aerobic
Experimental: To help guide optimization of growth conditions for strain SR7, physiological tests were conducted under aerobic conditions. To determine tolerance for pH, salinity and bicarbonate, high throughput culturing was done in 96 well plates and scored for growth by OD600 using a microplate reader (BioTek Synergy 2; BioTek; Winooski, Vt.). 200 uL LB solutions/well were inoculated in triplicate with 10^4 spores/ml (based on SR7 spore stock filter counts) and incubated on a plate rocker at 37° C. with unamended positive and cell-free negative LB controls. Tests for pH tolerance (pH 2-10) were conducted in LB medium amended with HCl or NaOH. The effect of salinity and bicarbonate on growth was determined by adding NaCl (1-10%) and NaHCO3 (0.1-0.5M), respectively, to LB media. Optimal SR7 growth temperature was tested by inoculating 10^4 spores/ml in 5 ml of LB in triplicate at temperatures of 9-55° C. Cultures and cell-free negative controls were incubated without shaking, with subsamples taken for periodic OD600 measurements. SR7 antibiotic sensitivity was determined by supplementing 5 ml LB with ampicillin (5-50 μg/ml), chloramphenicol (3.5-35 μg/ml), kanamycin (5-50 μg/ml), spectinomycin (10-100 μg/ml), streptomycin (10-100 μg/ml), or tetracycline (1.5-15 μg/ml).

B. megaterium DSM319 = assay: Biolog GenIII sole carbon source growth; format: cell-based, Bacillus megaterium; details: no metals added; Table 10
Experimental: as §1

B. megaterium QM B1551 = assay: Biolog GenIII sole carbon source growth; format: cell-based, Bacillus megaterium; details: no metals added; Table 10
Experimental: as §1

[9] = pooled incubations, 18-20 days, unamended reactors 36%
[10] = assayed 0, 5, 10, 50, 80, 100 g/L over 36 h
[11] = assayed 0, 100, 300, 500 mM over 36 h

O=C[C@H](O)[C@@H](O)[C@H](O)CO [0.4% Xylose, Xylose]
Growth (B. megaterium SR7 [1]): − (no growth below 0.2)

C[C@H](N)C(=O)O [L-alanine]
Spores gated as germinated (Syto16/PI fluorescence) (B. megaterium SR7 spores [2]; PBS only 3.7%): 1.38-31.8% | Spores gated as activated (Syto16/PI fluorescence) (B. megaterium SR7 spores [2]; PBS only 22.0%): 44-69% | Bulk fluorescence relative to PBS only incubated spores (B. megaterium SR7 spores [3]): 2.4 fold | Growth in carbon source Biolog plate, +Metals (B. megaterium SR7 [4]): + | Growth in carbon source Biolog plate, I (B. megaterium SR7 [4]): + | Growth in carbon source Biolog plate, II (B. megaterium SR7 [4]): + | Fluorescence Fold Increase (B. megaterium SR7 spores [5]; 25 mM inducer): 2.1 fold | OD600 Fold Decrease (B. megaterium SR7 spores [5]; 25 mM inducer): 1.5 fold | Fluorescence Fold Increase (B. megaterium SR7 spores [5]; 100 mM inducer): 1.4 fold | OD600 Fold Decrease (B. megaterium SR7 spores [5]; 100 mM inducer): 1.2 fold | Fluorescence Fold Increase (B. megaterium SR7 spores [5]; 250 mM inducer): 1.4 fold | OD600 Fold Decrease (B. megaterium SR7 spores [5]; 250 mM inducer): 1.2 fold | Time to germination (B. megaterium SR7 spores [6]): ≤ 4.5 h | Growth frequency of cultures under scCO2 (B. megaterium SR7 spores [7]; [9]): 63% | Growth frequency of cultures under scCO2 (B. megaterium SR7 spores [7]; with heat treatment): 50%

CC(C)C[C@H](N)C(=O)O [L-leucine]
Fluorescence Fold Increase (B. megaterium SR7 spores [5]; 10 mM inducer): 2.0 fold | OD600 Fold Decrease (B. megaterium SR7 spores [5]; 10 mM inducer): 1.2 fold | Fluorescence Fold Increase (B. megaterium SR7 spores [5]; 25 mM inducer): 2.0 fold | OD600 Fold Decrease (B. megaterium SR7 spores [5]; 25 mM inducer): 1.2 fold | Growth frequency of cultures under scCO2 (B. megaterium SR7 spores [7]; [9]): 7.7%

[Cl-].[Na+] [NaCl]
Optimal for SR7 growth, [NaCl] (B. megaterium SR7 [8]; [10]): 0 to 10 g/L | Range of viable SR7 growth, [NaCl] (B. megaterium SR7 [8]; [10]): 0 to 100 g/L

O=C(O)O [NaHCO3]
Optimal for SR7 growth, NaHCO3 (B. megaterium SR7 [8]; [11]): 0 to 100 mM | Range of viable SR7 growth, NaHCO3 (B. megaterium SR7 [8]; [11]): 0 to 300 mM

OC[C@H]1O[C@H](O)[C@H](O)[C@@H](O)[C@@H]1O [α-D-Glucose]
Growth on Biolog sole carbon source, DSM319 (B. megaterium DSM319): +++ | Growth on Biolog sole carbon source, QM B1551 (B. megaterium QM B1551): + | Growth on Biolog sole carbon source, SR7 (B. megaterium SR7 [4]; no metals added, Table 10): + | Growth in carbon source Biolog plate, +Metals (B. megaterium SR7 [4]): +++ | Growth in carbon source Biolog plate, I (B. megaterium SR7 [4]): + | Growth in carbon source Biolog plate, II (B. megaterium SR7 [4]): +
